{
  "source": "patent US6713048B2",
  "about": "“Δ9 tetrahydrocannabinol (Δ9 THC) solution metered dose inhalers and methods of use” (Virginia Commonwealth University, priority 1998, dated 2004)",
  "key": {"Male ICR mice [1]": {"test_system": "Male ICR mice", "assay": "Antinociception, tail-flick test", "format": "in vivo", "protocol": "(§1) Male ICR mice, weighing approximately 30 g, obtained from Harlan Laboratories (Indianapolis, Ind.) were provided a light cycle of approximately 6 a.m. to 6 p.m., and the temperature remained approximately 23° C. The mice were placed in the lab and allowed to accommodate to the surroundings the evening prior to testing. Animals were allowed food (Harlan Teklab, Madison, Wis.) and water ad libitum.\nThe exposure chamber was a modified, inverted, 1-liter separation funnel, housed under a fume hood, which allowed four mice to be simultaneously exposed to the aerosol. Air was drawn through the chamber at a rate of approximately 60 ml/minute and filtered through glass wool (Corning Inc., Corning, N.Y.) and charcoal traps (SKC Inc., Eighty Four, Pa.) upon exiting the exposure chamber. Each actuation of Δ^9-THC or vehicle was delivered once per 5 s and the entire exposure period was 10 min. Mice were exposed to 20, 40 or 60 actuations of aerosolized Δ^9-THC or 60 actuations of vehicle.\nMice were placed in separate clear chambers (16.5 cm×25.5 cm×11.5 cm high) and assessed for hypomotility using a Digiscan Animal Activity Monitor (Omnitech Electronics Inc., Columbus, Ohio) in which the total number of photocell-light beam interruptions was counted. Antinociception was assessed in the tail-flick test (D'Amour, F. E., Smith, D. L., A method for determining loss of pain sensation, J Pharm Exp Ther, 72:74-79 (1941)) with heat intensity adjusted to give baseline latencies ranging from 2.0-4.0 seconds. A cut-off time of 10 seconds was used to limit tissue damage. Percent maximum possible effect (%MPE) was determined according to the following formula:\n%MPE=[(test latency-baseline latency)/(cut-off-baseline latency)]*100\n(§2) A ring-test procedure was used to assess catalepsy. The percent of time during a five minute observation period that mice remained motionless, except for movements related to respiration, while stationed on a 5.7 cm diameter ring stand 23 cm above the laboratory bench, was assessed. Body temperature was assessed by inserting a thermometer probe (Traceable Digital, Control Co., Friendswood, Tex.) 2.5 cm into the rectum. Subjects were assessed for baseline tail-flick latency and rectal temperature prior to drug or vehicle administration. […] Locomotor activity, tail-flick latency, catalepsy, and hypothermia were assessed 5, 20, 40, and 60 minutes, respectively, after aerosol exposure. An additional group of animals was given an i.v. injection of Δ^9-THC (0.3, 1, 3, or 10 mg/kg) or vehicle into a lateral tail vein and assessed in the tail-flick test 20 minutes later. All injections were given in a volume of 0.1 ml per 10 g animal weight.\nThe statistical analysis of the data was as follows. Data are represented by means±standard error (s.e.). Statistical analysis of the data was performed using Student t-tests (for the physiochemical comparisons of the aerosol), or ANOVA (for pharmacological studies), with significance set at p<0.05. Post hoc tests for significant ANOVAs included either Dunnett's test or Tukey/Kramer post-hoc analysis. […] A sample size of 6-8 mice was used in each group."}, "Male ICR mice [2]": {"test_system": "Male ICR mice", "assay": "Catalepsy, ring-test (ring immobility)", "format": "in vivo", "settings": "SR 141716A 10 mg/kg i.p. 5 min before 60 actuations of Δ^9-THC MDI", "protocol": "as §1\n(§3) The exposure chamber was a modified, inverted, 1-liter separation funnel, housed under a fume hood, which allowed four mice to be simultaneously exposed to the aerosol. […]\nas §2, with “An additional group of animals was given an i.v. injection of Δ^9-THC (0.3, 1, 3, or 10 mg/kg) or vehicle into a lateral tail vein and assessed in the tail-flick test 20 minutes later. All injections were given in a volume of 0.1 ml per 10 g animal weight.” left out"}, "Male ICR mice [3]": {"test_system": "Male ICR mice", "assay": "Locomotor activity (hypomotility), Digiscan Animal Activity Monitor", "format": "in vivo", "settings": "SR 141716A 10 mg/kg i.p. 5 min before 60 actuations of Δ^9-THC MDI", "procedure": "Mice were placed in separate clear chambers (16.5 cm×25.5 cm×11.5 cm high) and assessed for hypomotility using a Digiscan Animal Activity Monitor (Omnitech Electronics Inc., Columbus, Ohio) in which the total number of photocell-light beam interruptions was counted. Antinociception was assessed in the tail-flick test (D'Amour, F. E., Smith, D. L., A method for determining loss of pain sensation, J Pharm Exp Ther, 72:74-79 (1941)) with heat intensity adjusted to give baseline latencies ranging from 2.0-4.0 seconds. […] Percent maximum possible effect (%MPE) was determined according to the following formula:\nA ring-test procedure was used to assess catalepsy. […] Body temperature was assessed by inserting a thermometer probe (Traceable Digital, Control Co., Friendswood, Tex.) 2.5 cm into the rectum. […]"}, "Male ICR mice [4]": {"test_system": "Male ICR mice", "assay": "Hypothermia, rectal temperature", "format": "in vivo", "settings": "SR 141716A 10 mg/kg i.p. 5 min before 60 actuations of Δ^9-THC MDI", "protocol": "as §1, §3\nas §2, with “An additional group of animals was given an i.v. injection of Δ^9-THC (0.3, 1, 3, or 10 mg/kg) or vehicle into a lateral tail vein and assessed in the tail-flick test 20 minutes later. All injections were given in a volume of 0.1 ml per 10 g animal weight.” left out"}, "mice": {"test_system": "mice", "settings": "cited from earlier work"}, "[5]": {"test_system": "Spasticity and pain due to spinal cord injury", "settings": "oral THC (5 mg) or codeine (50 mg); 1 patient; cited from earlier work"}, "[6]": {"test_system": "Nausea and emesis due to Cancer chemotherapy", "settings": "oral 15 mg THC, 10 mg prochloperzine or placebo; 116 patients; cited from earlier work"}},
  "note": "Entries after “also recorded” stand apart in the source; their conditions may differ.",
  "data": [
    {"smiles": "Cc1c(C(=O)NN2CCCCC2)nn(-c2ccc(Cl)cc2Cl)c1-c1ccc(Cl)cc1", "note": "[SR 141716A]", "values": [
      {"measurement": "antagonism of Δ^9-THC-induced antinociception", "setting": "Male ICR mice [1]; SR 141716A 10 mg/kg i.p. 5 min before 60 actuations of Δ^9-THC MDI", "result": "significantly blocked; also recorded: significantly antagonized"},
      {"measurement": "AD50 (95% C.L.) in antagonizing the antinociceptive effects of inhaled Δ^9-THC", "setting": "Male ICR mice [1]; i.p. pretreatment, exposure to Δ^9-THC", "result": 0.8, "unit": "mg/kg"},
      {"measurement": "antagonism of Δ^9-THC-induced catalepsy", "setting": "Male ICR mice [2]", "result": "significantly blocked; also recorded: significantly antagonized"},
      {"measurement": "antagonism of Δ^9-THC-induced hypomotility", "setting": "Male ICR mice [3]", "result": "significantly blocked; also recorded: significantly antagonized"},
      {"measurement": "antagonism of Δ^9-THC-induced hypothermia", "setting": "Male ICR mice [4]", "result": "significantly blocked; also recorded: not completely antagonized; also recorded: significantly antagonized"},
      {"measurement": "ED50 in antagonizing antinociceptive effects", "setting": "mice; exposure to marijuana smoke (Lichtman et al., 2001)", "result": 0.6, "unit": "mg/kg"},
      {"measurement": "antagonism of effects of marijuana smoke", "setting": "mice; mice exposed to marijuana smoke (Lichtman et al., 2001)", "result": "only effectively antagonized the antinociceptive response"}
    ]},
    {"smiles": "COc1ccc2c3c1O[C@H]1[C@@H](O)C=C[C@H]4[C@@H](C2)N(C)CC[C@@]341", "note": "[codeine]", "values": [
      {"measurement": "effect on spasticity", "setting": "[5]", "result": "codeine did not"}
    ]},
    {"smiles": "CN1CCN(CCCN2c3ccccc3Sc3ccc(Cl)cc32)CC1", "note": "[prochlorperazine]", "values": [
      {"measurement": "antiemetic effect compared with placebo", "setting": "[6]", "result": "each greater than placebo;"},
      {"measurement": "antiemetic effects, THC vs prochlorperazine", "setting": "[6]", "result": "Equal antiemetic effects"}
    ]}
  ]
}
